# From US6500853B1, “Inhibitors of phospholipase enzymes” (Genetics Institute, LLC, priority 1998, dated 2002)
# Target: T1, cPLA2 (Homo sapiens, UniProt P47712)
# T1 sequence (P47712 1-749): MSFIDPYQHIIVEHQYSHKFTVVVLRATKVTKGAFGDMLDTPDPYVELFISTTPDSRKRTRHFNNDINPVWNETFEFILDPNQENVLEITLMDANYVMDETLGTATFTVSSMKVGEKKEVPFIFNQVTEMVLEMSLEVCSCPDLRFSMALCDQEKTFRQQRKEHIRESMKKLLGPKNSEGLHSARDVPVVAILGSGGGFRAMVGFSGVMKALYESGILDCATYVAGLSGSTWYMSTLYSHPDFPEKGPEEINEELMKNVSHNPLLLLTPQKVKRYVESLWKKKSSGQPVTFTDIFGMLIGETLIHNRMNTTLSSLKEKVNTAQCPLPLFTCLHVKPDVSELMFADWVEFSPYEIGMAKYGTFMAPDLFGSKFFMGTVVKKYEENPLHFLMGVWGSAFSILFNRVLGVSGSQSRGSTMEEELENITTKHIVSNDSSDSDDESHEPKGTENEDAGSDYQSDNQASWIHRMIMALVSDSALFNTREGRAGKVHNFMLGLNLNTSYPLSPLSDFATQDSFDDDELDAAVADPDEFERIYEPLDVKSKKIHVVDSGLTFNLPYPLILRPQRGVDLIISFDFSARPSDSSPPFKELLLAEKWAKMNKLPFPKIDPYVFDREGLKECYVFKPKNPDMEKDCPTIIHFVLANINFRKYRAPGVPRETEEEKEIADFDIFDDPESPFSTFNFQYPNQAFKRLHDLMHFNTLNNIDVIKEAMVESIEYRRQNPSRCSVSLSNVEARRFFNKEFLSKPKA
# Experiment: Coumarin Assay (cPLA2 inhibition)
# Format: biochemical
# Details: for inhibition at 2.5 µM: CONCENTRATION 2.5 micromolar; for inhibition at 1.6 µM: CONCENTRATION 1.6 micromolar; for inhibition at 1.1 µM: CONCENTRATION 1.1 micromolar
# Protocol: Table I reports data for the compounds described in the examples above in cPLA2 inhibition assays (described below). In the data columns of Tables I and II, assay results are reported as a percent inhibition at the concentration specified.
# 7-hydroxycoumarinyl 6-heptenoate was used as a monomeric substrate for cPLA2 as reported previously (Huang, Z. et al., 1994, Nalytical Biochemistry 222, 110-115). Inhibitors were mixed with 200 μL assay buffer (80 mM Heped, pH 7.5, 1 mM EDTA) containing 60 μM 7-hydroxycoumarinyl 6-heptenoate. The reaction was initiated by adding 4 μg cPLA2 in 50 μL assay buffer. Hydrolysis of the 7-hydroxycounarimyl 6-heptenoate ester was monitored in a fluorometer by exciting at 360 nm and monitoring emission at 460 nm. Enzyme activity is proportional to the increase in emission at 460 nm per minute. In the presence of a cPLA2 inhibitor, the rate of increase is less. The percent inhibition for corresponding concentrations of compounds herein in this Coumarin assay are provided below in Table I.
# [1] = CONCENTRATION 50 micromolar, read-out: PERCENT INHIBITION @
structure (smiles),measurement,setting,value
"O=C(Cc1cn(Cc2ccc(C(F)(F)F)cc2C(F)(F)F)c2ccc(OCc3ccccc3)cc12)Nc1cccc(C(=O)O)c1 [Example 106, 3-[(2-{5-(benzyloxy)-1-[2,4-bis(trifluoromethyl)benzyl]-1H-indol-3-yl}acetyl)amino]benzoic acid]",inhibition at 7 µM,"CONCENTRATION 7 micromolar, read-out: PERCENT INHIBITION @",50%
same,inhibition at 12 µM,"CONCENTRATION 12 micromolar, read-out: PERCENT INHIBITION @",50%
"Cc1c(C(=O)O)c2cc(OCc3ccccc3)ccc2n1Cc1ccc(C(F)(F)F)cc1C(F)(F)F [Example 107, 5-(benzyloxy)-1-[2,4-bis(trifluoromethyl)benzyl]-2-methyl-1H-indole-3-carboxylic acid]",inhibition at 37 µM,"CONCENTRATION 37 micromolar, read-out: PERCENT INHIBITION @",50%
same,inhibition at 50 µM,[1],43%
same,inhibition at 71 µM,"CONCENTRATION 71 micromolar, read-out: PERCENT INHIBITION @",50%
same,inhibition at 80 µM,"CONCENTRATION 80 micromolar, read-out: PERCENT INHIBITION @",50%
"Cc1c(C(=O)Nc2cc(C(=O)O)cc(C(=O)O)c2)c2cc(OCc3ccccc3)ccc2n1Cc1ccc(C(F)(F)F)cc1C(F)(F)F [Example 108, 5-[({5-(benzyloxy)-1-[2,4-bis(trifluoromethyl)benzyl]-2-methyl-1H-indol-3-yl}carbonyl)amino]isophthalic acid]",inhibition at 6.25 µM,"CONCENTRATION 6.25 micromolar, read-out: PERCENT INHIBITION @",67%
same,inhibition at 20 µM,"CONCENTRATION 20 micromolar, read-out: PERCENT INHIBITION @",15%
same,inhibition at 48 µM,"CONCENTRATION 48 micromolar, read-out: PERCENT INHIBITION @",50%
same,inhibition at 50 µM,[1],46%
"Cc1c(C(=O)O)c2cc(OCc3ccccc3)ccc2n1Cc1ccc2ccccc2c1 [Example 109, 5-(benzyloxy)-2-methyl-1-(2-naphthylmethyl)-1H-indole-3-carboxylic acid]",PERCENT INHIBITION @,CONCENTRATION 50 micromolar,25%
same,inhibition at 50 µM,[1],28%
"Cc1c(C(=O)Nc2cc(C(=O)O)cc(C(=O)O)c2)c2cc(OCc3ccccc3)ccc2n1Cc1ccc2ccccc2c1 [Example 110, 5-({[5-(benzyloxy)-2-methyl-1-(2-naphthylmethyl)-1H-indol-3-yl]carbonyl}amino)isophthalic acid]",inhibition at 46 µM,"CONCENTRATION 46 micromolar, read-out: PERCENT INHIBITION @",50%
same,inhibition at 47 µM,"CONCENTRATION 47 micromolar, read-out: PERCENT INHIBITION @",50%
"Cc1c(C(=O)O)c2cc(OCc3ccccc3)ccc2n1Cc1ccccc1 [Example 111, 1-benzyl-5-(benzyloxy)-2-methyl-1H-indole-3-carboxylic acid]",PERCENT INHIBITION @,CONCENTRATION 50 micromolar,15%
same,inhibition at 50 µM,[1],16%
"O=C(Nc1cccc(C(=O)O)c1)C(=O)c1c(CSc2ccc3ccccc3c2)n(Cc2ccc(Cl)cc2)c2ccc(OCc3ccccc3)cc12 [Example 112, 3-[(2-{5-(benzyloxy)-1-(4-chlorobenzyl)-2-[(2-naphthylsulfanyl)methyl]-1H-indol-3-yl}-2-oxoacetyl)amino]benzoic acid]",inhibition at 2.5 µM,read-out: PERCENT INHIBITION @,53%
"Cn1c(CSc2ccc3ccccc3c2)c(C(=O)C(=O)Nc2cccc(C(=O)O)c2)c2cc(OCc3ccccc3)ccc21 [Example 113, 3-[(2-{5-(benzyloxy)-1-methyl-2-[(2-naphthylsulfanyl)methyl]-1H-indol-3-yl}-2-oxoacetyl)amino]benzoic acid]",inhibition at 7.5 µM,"CONCENTRATION 7.5 micromolar, read-out: PERCENT INHIBITION @",50%
same,inhibition at 8 µM,"CONCENTRATION 8 micromolar, read-out: PERCENT INHIBITION @",50%
"Cc1cc(Cc2cn(C(c3ccccc3)c3ccccc3)c3cc(Cl)ccc23)cc(C)c1OCC(=O)O [Example 117, 2-{4-[(1-benzhydryl-6-chloro-1H-indol-3-yl)methyl]-2,6-dimethylphenoxy}acetic acid]",inhibition at 1.6 µM,read-out: PERCENT INHIBITION @,50%
"COc1cc(OCC(=O)O)ccc1Cc1cn(C(c2ccccc2)c2ccccc2)c2cc(Cl)ccc12 [Example 118, 2-{4-[(1-benzhydryl-6-chloro-1H-indol-3-yl)methyl]-3-methoxyphenoxy}acetic acid]",inhibition at 0.6 µM,"CONCENTRATION 0.6 micromolar, read-out: PERCENT INHIBITION @",50%
"O=C(O)COc1ccc(Cc2cn(C(c3ccccc3)c3ccccc3)c3cc(Cl)ccc23)cc1 [Example 119, 2-{4-[(1-benzhydryl-6-chloro-1H-indol-3-yl)methyl]phenoxy}acetic acid]",inhibition at 2.5 µM,read-out: PERCENT INHIBITION @,50%
"O=C(O)COc1ccc(Cc2cn(C(c3ccccc3)c3ccccc3)c3cc(Cl)ccc23)c(Cl)c1 [Example 120, 2-{4-[(1-benzhydryl-6-chloro-1H-indol-3-yl)methyl]-3-chlorophenoxy}acetic acid]",inhibition at 1 µM,"CONCENTRATION 1 micromolar, read-out: PERCENT INHIBITION @",50%
"COc1cc(Cc2cn(C(c3ccccc3)c3ccccc3)c3cc(Cl)ccc23)ccc1OCC(=O)O [Example 121, 2-{4-[(1-benzhydryl-6-chloro-1H-indol-3-yl)methyl]-2-methoxyphenoxy}acetic acid]",inhibition at 1.6 µM,read-out: PERCENT INHIBITION @,20%
"O=C(O)/C=C/COc1ccc(Cc2cn(C(c3ccccc3)c3ccccc3)c3cc(Cl)ccc23)cc1 [Example 122, (E)-4-{4-[(1-benzhydryl-6-chloro-1H-indol-3-yl)methyl]phenoxy}-2-butenoic acid]",inhibition at 1.25 µM,"CONCENTRATION 1.25 micromolar, read-out: PERCENT INHIBITION @",64%
"O=C(O)CCC(=O)Nc1ccc(Cc2cn(C(c3ccccc3)c3ccccc3)c3cc(Cl)ccc23)cc1 [Example 123, 4-{4-[(1-benzhydryl-6-chloro-1H-indol-3-yl)methyl]anilino}-4-oxobutanooic acid]",PERCENT INHIBITION @,CONCENTRATION 1.2 micromolar,50%
"O=C(O)CC(=O)Nc1ccc(Cc2cn(C(c3ccccc3)c3ccccc3)c3cc(Cl)ccc23)cc1 [Example 124, sodium 3-{4-[(1-benzhydryl-6-chloro-1H-indol-3-yl)methyl]anilino}-3-oxopropanoic acid]",inhibition at 1.3 µM,"CONCENTRATION 1.3 micromolar, read-out: PERCENT INHIBITION @",50%
"O=C(O)C(=O)Nc1ccc(Cc2cn(C(c3ccccc3)c3ccccc3)c3cc(Cl)ccc23)cc1 [Example 125, 2-{4-[(1-benzhydryl-6-chloro-1H-indol-3-yl)methyl]anilino}-2-oxoacetic acid]",inhibition at 0.8 µM,"CONCENTRATION 0.8 micromolar, read-out: PERCENT INHIBITION @",50%
"O=C(O)C1CC1Cc1cn(C(c2ccccc2)c2ccccc2)c2cc(Cl)ccc12 (stereo not shown) [Example 126, 2-[(1-benzhydryl-6-chloro-1H-indol-3-yl)methyl]cyclopropanecarboxylic acid]",inhibition at 5.5 µM,"CONCENTRATION 5.5 micromolar, read-out: PERCENT INHIBITION @",50%
"O=C(O)C1CC1Cc1cn(C(c2ccccc2)c2ccccc2)c2cc(Cl)c(F)cc12 (stereo not shown) [Example 127, 2-[(1-benzhydryl-6-chloro-5-fluoro-1H-indol-3-yl)methyl]cyclopropanecarboxylic acid]",inhibition at 1.1 µM,read-out: PERCENT INHIBITION @,50%
"O=C(O)C1CC1Cc1cn(C(c2ccccc2)c2ccccc2)c2cc(Cl)c(Cl)cc12 (stereo not shown) [Example 128, 2-[(1-benzhydryl-5,6-dichloro-1H-indol-3-yl)methyl]cyclopropanecarboxylic acid]",inhibition at 0.9 µM,"CONCENTRATION 0.9 micromolar, read-out: PERCENT INHIBITION @",50%
"O=C(O)C1CC1Cc1cn(C(c2ccc(O)cc2)c2ccc(O)cc2)c2cc(Cl)ccc12 (stereo not shown) [Example 129, 2-({1-[bis(4-hydroxyphenyl)methyl]-6-chloro-1H-indol-3-yl}methyl)cyclopropanecarboxylic acid]",inhibition at 1.1 µM,read-out: PERCENT INHIBITION @,50%
"O=C(O)c1ccc(Cc2cn(C(c3ccccc3)c3ccccc3)c3cc(Cl)ccc23)c(O)c1 [Example 130, ′4-[(1-benzhydryl-6-chloro-1H-indol-3-yl)methyl]-3-hydroxybenzoic acid]",PERCENT INHIBITION @,CONCENTRATION 2 micromolar,50%
"O=C(O)c1ccc(Cc2cn(C(c3ccccc3)c3ccccc3)c3cc(Cl)ccc23)c(OCCCO)c1 [Example 131, ′4-[(1-benzhydryl-6-chloro-1H-indol-3-yl)methyl]-3-(3-hydroxypropoxy)benzoic acid]",PERCENT INHIBITION @,CONCENTRATION 0.6 micromolar,50%
